The source of these data is US9217012B2, “Inhibitors of protein tyrosine phosphatases” (Indiana University Research and Technology Corporation, priority 2009, dated 2015).

One assay concerns the target LMWPTP (Homo sapiens (Human), UniProt P24666). The assay is described as follows: PTP selectivity panel (pNPP), LMWPTP. Type of assay: biochemical. The note with it: Table 3. The method, then:
(§1) PTP activity was assayed using p-nitrophenyl phosphate (pNPP) as a substrate in DMG buffer (50 mM DMG, pH 7.0, 1 mM EDTA, 150 mM NaCl, 2 mM DTT, 0.1 mg/mL BSA) at 25° C. The assays were performed in 96-well plates. Normally, to determine the IC50 values, the reaction was initiated by the addition of enzyme (final concentration of 10 nM) to a reaction mixture (0.2 mL) containing 2 mM (Km for the substrate) pNPP with various concentrations of inhibitors. The reaction rate was measured using a Spectra Max Plus 384 Microplate Spectrophotometer (Molecular Devices). For compound 10, the final TC-PTP concentration was 0.04 nM. The reactions were incubated at room temperature for 30 min and quenched with 5N NaOH. The absorbance at 405 nm was read on the SpectraMax Plus 384 Microplate Spectrophotometer. For the reversibility test, the enzyme was incubated with the inhibitor at room temperature for 30 min before pNPP was added to initiate the reaction. The reaction was then incubated at room temperature for 30 min and quenched and read. […] To determine the mode of inhibition, the reactions were initiated by the additional enzyme (final concentration for TC-PTP was 0.4 nM and for PTP was 2 nM) to the reaction mixtures (0.2 mL) containing various concentrations of pNPP with different concentrations of the inhibitor. Data were fitted using SigmaPlot Enzyme Kinetics Module (Systat Software, Inc.)

For the next assay, the target named is PTP-Meg2 (Homo sapiens (Human), UniProt P43378). As to the kind of experiment: PTP selectivity panel (pNPP), PTP-Meg2. The settings on record: Table 3. The format is biochemical. As to the method:
as §1

Assay [1] deals with Src phosphorylation in PTP1B−/− mouse embryo fibroblast cells. The assay is described as follows: Effect on Src phosphorylation (pSrc416, pSrc527 immunoblot). The format is cell-based. The settings on record: 2 h treatment. As to the method: To study the effect of compound 10 on Src phosphorylation, PTP1B^−/− mouse embryo fibroblast cells were grown to 80% confluence before being treated with TC-PTP inhibitor 10 for 2 h. Cells were lysed, and the lysates were cleared by centrifugation at 15 000 rpm for 10 min. 30 μg of total proteins were boiled with sample buffer, separated by SDS-PAGE, transferred electrophoretically to a PVDF membrane, and immunoblotted with anti-pSrc416, anti-pSrc527 antibodies (Invitrogen 44-660G and 44-662G) and antic-Src antibody (Cell Singling Technology #2108) followed by incubation with horseradish peroxidase conjugated secondary antibodies. The blots were developed by the enhanced chemiluminesence technique (ECL kit, Amersham Biosciences).
To further investigate the specificity of compound 10 inside the cells, the ability of compound 10 to effect Src kinase phosphorylation within the same cells was measured. Src activity is regulated by phosphorylation at two distinct tyrosine residues. Autophosphorylation of Tyr416 in the kinase domain activates Src, while phosphorylation of Tyr527 in the C-terminal tail by the C-terminal Src kinase (Csk) blocks Src activity. Previous studies have shown that PTP1B can remove the inhibitory phosphate from pSrc527, while TC-PTP is capable of dephosphorylating pSrc416 (van Vilet et al., 2005; Bjorge, et al., 2000).
On the technique in general: A western blot detects proteins with antibodies after separation by electrophoresis.

The target of a further assay is VHR (Homo sapiens (Human), UniProt P51452). The assay is described as follows: PTP selectivity panel (pNPP), VHR. Type of assay: biochemical. The note with it: Table 3. As to the method:
as §1

For another assay, the target named is VHX (Homo sapiens (Human), UniProt Q9NRW4). As to the kind of experiment: PTP selectivity panel (pNPP), VHX. The note with it: Table 3. The format is biochemical. As to the method:
as §1

The next assay deals with FAP1 (Homo sapiens (Human), UniProt Q12923). The assay is described as follows: PTP selectivity panel (pNPP), FAP1. Type of assay: biochemical. The note with it: Table 3. As to the method:
as §1

For the next assay, the target named is He-PTP (Homo sapiens (Human), UniProt P35236). The assay is described as follows: PTP selectivity panel (pNPP), He-PTP. Type of assay: biochemical. The note with it: Table 3. The method, then:
as §1

The target of another assay is SHP2 (Homo sapiens (Human), UniProt Q06124). The assay is described as follows: PTP selectivity panel (pNPP), SHP2. The note with it: Table 3. The format is biochemical. The method, then: as §1
The target in another assay is PTP1B (Homo sapiens (Human), UniProt P18031). The assay is described as follows: PTP activity assay with pNPP substrate, PTP1B. Type of assay: biochemical. As to the method:
(§2) The PTP activity was assayed using p-nitrophenyl phosphate (pNPP) as a substrate in DMG buffer at 25° C. […] The reaction rate was measure using a SPECTRAMAX microplate spectrophotometer (Molecular Devices). For the determination of Km, the initial velocity and substrate concentration data were fitted to Michaelis-Menten equation using SIGMAPLOT. […] The assays were performed in 96-well plates. […] The reaction rate was measured using a Spectra Max Plus 384 Microplate Spectrophotometer (Molecular Devices). […] The reactions were incubated at room temperature for 30 min and quenched with 5N NaOH. The absorbance at 405 nm was read on the SpectraMax Plus 384 Microplate Spectrophotometer. For the reversibility test, the enzyme was incubated with the inhibitor at room temperature for 30 min before pNPP was added to initiate the reaction. The reaction was then incubated at room temperature for 30 min and quenched and read. […] Data were fitted using SigmaPlot Enzyme Kinetics Module (Systat Software, Inc.)

A further assay addresses CD45 (Homo sapiens (Human), UniProt P08575). As to the kind of experiment: PTP selectivity panel (pNPP), CD45. Type of assay: biochemical. The settings on record: Table 3. As to the method:
as §1

The target in another assay is Lyp (Homo sapiens (Human), UniProt Q9Y2R2). The assay is described as follows: PTP selectivity panel (pNPP), Lyp. The settings on record: Table 3. The format is biochemical. The method, then:
as §1

In a further assay the target is TC-PTP (Homo sapiens (Human), UniProt P17706). The assay is described as follows: PTP activity assay with pNPP substrate, TC-PTP. The format is biochemical. The settings on record: for IC50: 0.04 nM TC-PTP. As to the method: as §2

Values joined by “and” are separate entries in the source; they are usually repeats but may differ in a detail not shown here. Equal entries are not always repeated. “Also recorded” adds a separate entry of the source. Where two headings read alike, the source gives them in different places.

Chain of PTP1B (P18031 whole entry, species assumed): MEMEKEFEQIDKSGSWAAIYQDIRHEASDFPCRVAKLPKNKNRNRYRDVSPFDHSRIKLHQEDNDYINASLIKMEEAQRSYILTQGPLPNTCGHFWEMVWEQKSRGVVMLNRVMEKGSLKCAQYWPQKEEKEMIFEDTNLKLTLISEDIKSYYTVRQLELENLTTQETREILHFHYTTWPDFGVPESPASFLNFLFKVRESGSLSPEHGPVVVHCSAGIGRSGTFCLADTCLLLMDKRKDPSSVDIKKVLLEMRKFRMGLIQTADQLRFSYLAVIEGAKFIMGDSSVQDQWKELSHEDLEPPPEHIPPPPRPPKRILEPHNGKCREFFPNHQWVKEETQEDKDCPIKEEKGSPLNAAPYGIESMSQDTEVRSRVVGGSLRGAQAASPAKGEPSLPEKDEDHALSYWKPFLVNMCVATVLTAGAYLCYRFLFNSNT
Chain of TC-PTP (P17706 whole entry): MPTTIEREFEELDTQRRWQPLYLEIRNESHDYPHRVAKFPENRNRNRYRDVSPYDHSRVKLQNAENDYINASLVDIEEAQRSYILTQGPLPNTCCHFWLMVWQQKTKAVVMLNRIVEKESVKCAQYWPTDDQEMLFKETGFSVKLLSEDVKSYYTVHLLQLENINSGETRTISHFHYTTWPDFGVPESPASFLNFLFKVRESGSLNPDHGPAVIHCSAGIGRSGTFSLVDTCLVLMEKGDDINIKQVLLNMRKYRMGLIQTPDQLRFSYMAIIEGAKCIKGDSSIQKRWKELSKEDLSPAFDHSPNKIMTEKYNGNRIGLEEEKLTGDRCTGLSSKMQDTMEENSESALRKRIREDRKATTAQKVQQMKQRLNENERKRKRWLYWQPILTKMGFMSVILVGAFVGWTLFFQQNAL
Chain of FAP1 (Q12923 whole entry, species assumed): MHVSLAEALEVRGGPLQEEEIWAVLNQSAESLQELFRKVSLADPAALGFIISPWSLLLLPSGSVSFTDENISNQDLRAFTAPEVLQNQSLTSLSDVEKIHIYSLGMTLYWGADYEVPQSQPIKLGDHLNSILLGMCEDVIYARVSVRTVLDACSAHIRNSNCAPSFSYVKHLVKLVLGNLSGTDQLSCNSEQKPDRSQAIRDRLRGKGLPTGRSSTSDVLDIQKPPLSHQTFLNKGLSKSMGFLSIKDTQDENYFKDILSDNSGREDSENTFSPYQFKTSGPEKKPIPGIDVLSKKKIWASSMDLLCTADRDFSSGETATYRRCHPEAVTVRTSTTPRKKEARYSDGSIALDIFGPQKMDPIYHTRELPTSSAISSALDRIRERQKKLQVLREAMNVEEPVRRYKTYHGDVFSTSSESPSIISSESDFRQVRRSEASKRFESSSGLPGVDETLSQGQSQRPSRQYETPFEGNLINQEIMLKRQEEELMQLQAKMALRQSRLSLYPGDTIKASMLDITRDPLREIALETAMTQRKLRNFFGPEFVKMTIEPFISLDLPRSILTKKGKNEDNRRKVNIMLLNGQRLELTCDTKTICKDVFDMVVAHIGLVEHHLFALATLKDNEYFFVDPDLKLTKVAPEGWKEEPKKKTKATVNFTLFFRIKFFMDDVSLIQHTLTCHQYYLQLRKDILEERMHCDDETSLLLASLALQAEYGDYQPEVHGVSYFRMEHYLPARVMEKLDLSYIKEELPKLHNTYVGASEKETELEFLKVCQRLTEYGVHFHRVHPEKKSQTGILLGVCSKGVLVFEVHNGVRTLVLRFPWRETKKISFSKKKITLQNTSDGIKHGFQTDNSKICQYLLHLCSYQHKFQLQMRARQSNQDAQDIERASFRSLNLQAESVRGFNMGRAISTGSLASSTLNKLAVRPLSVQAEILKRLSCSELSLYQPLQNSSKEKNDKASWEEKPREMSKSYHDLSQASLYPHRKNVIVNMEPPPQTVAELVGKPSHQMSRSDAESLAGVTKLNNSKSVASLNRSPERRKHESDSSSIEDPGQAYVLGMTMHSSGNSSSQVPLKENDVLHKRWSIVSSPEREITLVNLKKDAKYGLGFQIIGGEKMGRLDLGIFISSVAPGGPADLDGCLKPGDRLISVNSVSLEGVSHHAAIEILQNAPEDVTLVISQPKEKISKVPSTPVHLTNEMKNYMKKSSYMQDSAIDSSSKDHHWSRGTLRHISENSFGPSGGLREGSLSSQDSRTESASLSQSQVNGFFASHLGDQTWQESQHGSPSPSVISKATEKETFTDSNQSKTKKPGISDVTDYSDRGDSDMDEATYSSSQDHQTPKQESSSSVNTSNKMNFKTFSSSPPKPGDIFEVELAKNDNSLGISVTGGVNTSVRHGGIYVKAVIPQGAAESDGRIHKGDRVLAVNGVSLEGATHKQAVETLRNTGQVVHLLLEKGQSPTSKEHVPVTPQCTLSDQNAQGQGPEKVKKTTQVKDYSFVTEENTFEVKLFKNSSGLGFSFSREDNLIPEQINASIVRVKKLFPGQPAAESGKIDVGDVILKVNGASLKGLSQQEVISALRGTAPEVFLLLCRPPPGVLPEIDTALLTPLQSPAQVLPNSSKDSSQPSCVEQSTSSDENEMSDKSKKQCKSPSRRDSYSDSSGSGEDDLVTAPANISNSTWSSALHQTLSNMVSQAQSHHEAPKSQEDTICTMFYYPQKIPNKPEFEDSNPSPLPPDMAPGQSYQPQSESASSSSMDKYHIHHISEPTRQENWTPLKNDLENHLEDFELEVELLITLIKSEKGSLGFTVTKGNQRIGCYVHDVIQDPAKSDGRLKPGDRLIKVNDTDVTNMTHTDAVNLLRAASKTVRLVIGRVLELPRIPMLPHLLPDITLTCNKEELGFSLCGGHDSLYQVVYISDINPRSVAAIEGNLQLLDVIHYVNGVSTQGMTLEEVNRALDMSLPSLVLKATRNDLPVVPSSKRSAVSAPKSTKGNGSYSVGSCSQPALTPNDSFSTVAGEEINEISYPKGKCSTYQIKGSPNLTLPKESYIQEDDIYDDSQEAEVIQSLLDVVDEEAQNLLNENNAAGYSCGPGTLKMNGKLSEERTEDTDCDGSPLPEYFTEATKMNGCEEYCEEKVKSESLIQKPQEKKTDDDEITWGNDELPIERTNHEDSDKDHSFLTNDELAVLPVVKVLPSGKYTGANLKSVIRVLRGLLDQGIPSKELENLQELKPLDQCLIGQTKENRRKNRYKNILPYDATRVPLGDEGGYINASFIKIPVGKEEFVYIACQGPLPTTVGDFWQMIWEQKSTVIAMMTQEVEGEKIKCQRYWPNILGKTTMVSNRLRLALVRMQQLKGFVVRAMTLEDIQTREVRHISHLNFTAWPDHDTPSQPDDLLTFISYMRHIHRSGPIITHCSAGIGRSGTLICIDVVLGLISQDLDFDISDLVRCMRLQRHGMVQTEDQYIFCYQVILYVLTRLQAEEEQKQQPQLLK
Chain of VHR (P51452 whole entry, species assumed): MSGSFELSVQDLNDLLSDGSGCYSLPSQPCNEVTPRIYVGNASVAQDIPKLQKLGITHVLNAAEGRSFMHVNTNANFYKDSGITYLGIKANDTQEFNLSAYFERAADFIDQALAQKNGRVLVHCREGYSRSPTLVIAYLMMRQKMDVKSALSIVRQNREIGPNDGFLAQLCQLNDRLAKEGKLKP
Chain of PTP-Meg2 (P43378 whole entry): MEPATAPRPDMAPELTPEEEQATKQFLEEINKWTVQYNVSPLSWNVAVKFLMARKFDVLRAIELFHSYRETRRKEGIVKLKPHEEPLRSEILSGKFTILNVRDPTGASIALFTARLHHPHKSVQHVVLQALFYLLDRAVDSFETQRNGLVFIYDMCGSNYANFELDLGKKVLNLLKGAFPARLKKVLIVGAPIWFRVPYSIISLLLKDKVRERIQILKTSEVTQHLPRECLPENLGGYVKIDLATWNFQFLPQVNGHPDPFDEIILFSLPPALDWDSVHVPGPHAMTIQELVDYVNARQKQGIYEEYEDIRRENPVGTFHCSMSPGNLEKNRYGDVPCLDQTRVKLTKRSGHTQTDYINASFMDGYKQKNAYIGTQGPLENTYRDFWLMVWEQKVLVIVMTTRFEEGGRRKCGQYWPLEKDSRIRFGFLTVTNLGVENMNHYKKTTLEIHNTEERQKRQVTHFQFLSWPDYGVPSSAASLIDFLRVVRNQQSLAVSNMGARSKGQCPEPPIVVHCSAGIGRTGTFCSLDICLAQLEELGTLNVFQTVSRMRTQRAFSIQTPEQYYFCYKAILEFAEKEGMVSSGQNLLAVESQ
Chain of SHP2 (Q06124 whole entry, species assumed): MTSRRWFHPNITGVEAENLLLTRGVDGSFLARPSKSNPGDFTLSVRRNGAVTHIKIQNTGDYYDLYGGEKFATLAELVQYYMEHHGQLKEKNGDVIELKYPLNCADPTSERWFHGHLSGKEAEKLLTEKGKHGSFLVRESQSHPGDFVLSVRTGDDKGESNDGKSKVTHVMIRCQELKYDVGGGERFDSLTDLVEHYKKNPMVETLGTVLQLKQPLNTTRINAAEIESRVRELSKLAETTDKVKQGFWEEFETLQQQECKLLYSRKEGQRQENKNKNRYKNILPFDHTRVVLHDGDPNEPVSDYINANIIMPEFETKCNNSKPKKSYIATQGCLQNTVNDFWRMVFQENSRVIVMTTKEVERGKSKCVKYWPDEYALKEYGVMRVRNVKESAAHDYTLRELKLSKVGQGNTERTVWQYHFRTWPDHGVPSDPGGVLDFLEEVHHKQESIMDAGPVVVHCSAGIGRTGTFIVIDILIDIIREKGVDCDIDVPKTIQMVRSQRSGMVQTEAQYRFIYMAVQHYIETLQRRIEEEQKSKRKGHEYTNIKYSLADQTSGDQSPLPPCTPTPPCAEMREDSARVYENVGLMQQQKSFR
Chain of VHX (Q9NRW4 whole entry): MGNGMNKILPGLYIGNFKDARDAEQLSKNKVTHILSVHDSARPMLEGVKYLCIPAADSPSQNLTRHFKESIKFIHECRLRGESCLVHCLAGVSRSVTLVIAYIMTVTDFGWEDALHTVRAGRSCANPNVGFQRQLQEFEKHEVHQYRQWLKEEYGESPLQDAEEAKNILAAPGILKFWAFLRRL
Chain of LMWPTP (P24666 whole entry, species assumed): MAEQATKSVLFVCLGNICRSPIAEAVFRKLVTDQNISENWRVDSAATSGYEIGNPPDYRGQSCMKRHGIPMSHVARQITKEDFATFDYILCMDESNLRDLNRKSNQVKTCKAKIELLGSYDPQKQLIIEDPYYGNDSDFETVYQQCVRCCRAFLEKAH

In the case of `CCc1ccc(C(=O)NCCCCC(NC(=O)C(Cc2ccc(C(F)(F)P(=O)(O)O)cc2)NC(=O)C(Cc2ccccc2)NC(=O)COC2CC(C)CCC2C(C)C)C(N)=O)cc1` (stereo not drawn) [Compound 10], the Ki on LMWPTP, at PTP-Meg2, on VHR, at VHX, at FAP1 and on He-PTP was above 1000 nM throughout. The Ki – broadly, a measure of affinity in units of concentration, obtained from inhibition or displacement – is above 1000 nM at SHP2; 34 ± 2.8 nM at PTP1B (Table 3, Example 13, read-out: Ki (PTP1B)); 23.1 ± 0.7 nM on PTP1B (tight binding inhibition equation, Table 1, read-out: Ki for PTP1B); above 1000 nM at CD45; above 1000 nM on Lyp; 4.3 ± 0.2 nM on TC-PTP (Table 3, Example 13, read-out: Ki (TC-PTP)). In addition, the Ki on TC-PTP (tight binding inhibition equation, Table 1, read-out: Ki for TC-PTP) turned out to be 4.1 ± 0.2 nM. In assay [1], the pSrc416 phosphorylation entry is recorded as “dose-dependent increase”. Moreover, in assay [1], the pSrc527 phosphorylation result is recorded as “no significant change”. Besides, on PTP1B (kinetic analysis), the “mode of inhibition of PTP1B” value was “reversible and competitive inhibitor”. Also, the IC50 (in general, the concentration needed to halve the response being measured) was found to be 8.7 ± 1.4 nM against TC-PTP (IC50 with TC-PTP preincubation, enzyme preincubated with inhibitor 30 min) and 9.2 ± 1.4 nM against TC-PTP (IC50 without TC-PTP preincubation, no preincubation). In addition, the “selectivity for TC-PTP over PTP1B” value at TC-PTP (TC-PTP versus PTP1B) is 8 fold and 5.6 fold. Also, the “mode of inhibition of TC-PTP” value on TC-PTP (kinetic analysis) was “reversible TC-PTP inhibitor; also recorded: reversible and competitive inhibitor”. Moreover, the “selectivity versus a panel of PTPs” value on TC-PTP (versus SHP2, Lyp, HePTP, PTP-Meg2, FAP1, CD45, LAR, PTPa, VHR, VHX, CDC14A, low molecular weight PTP) is reported as “more than 200 fold”.
